Experimental findings from patent US11369665B2, “Anti-inflammatory peptides and composition comprising the same” (GemVax & KAEL Co., Ltd., priority 2012, dated 2022) are described below.

One assay relates to TNF-α. Description: TNF-α ELISA in LPS-stimulated PBMC-derived monocytes. Particulars: LPS 10 ng/ml 2 hrs, starved 1 hr, 4 uM for 2 hrs, ELISA of culture medium. Format: cell-based, human. The protocol: PBMC (peripheral blood mononuclear cell) was separated from the blood samples (50 ml) collected from healthy subjects using Ficoll-Paque™ PLUS (CYTIVA™, Piscataway, N.J., USA). PBMCs were then enriched in complete RPMI 1640 medium containing 20% of human serum, followed by transferring to 100 mm polystyrene cell culture plate coated with human serum for 30 mins. […]
To see the effect of PEP-1 on TNF-α level in terms of protein expression level. […] After culturing, cell soup was collected, and the amount of TNF-α was measured using ELISA kit (R&D, Minneapolis, Minn., USA) as follows:
TNF measurement uses sandwich ELISA method. […] Again, plate was washed, and avidin/biotin was added for measuring the absorbance. TNF-α level of each sample was quantified using the standard graph calculated from the absorbance of standard solution.
PBMC-derived monocytes were stimulated with endotoxin LPS (10 ng/ml) for 2 hrs, starved for 1 hr using OPTI-MEM®, and then 4 uM of FITC, FITC-TAT, PEP 1-FITC and FITC-PEP 1 were treated for 2 hrs. After incubation, TNF-α level was measured with cell culture medium using ELISA.

The subject of another assay is neural stem cells. Description: Amyloid-β toxicity assessment on neural stem cells. The format is cell-based, rat. The note with it: 20 μM amyloid-β protein, 48 hours.
A further assay deals with HMGB1. Description: 2D-electrophoresis protein expression in neural stem cells. Format: cell-based, rat. The note with it: 20 ug β-amyloid treated group, versus negative control 1.0. The protocol: (§1) Protein expression level of PEP-1 treated group and untreated group was analyzed by 2D-electrophoresis technique and antibody microarray technique. Prepared 200 μg by extracting proteome from the neural stem cells cultured in Experiment 3-1 of Example 3. In addition, the group in which PEP-1 was not treated was used as the comparison group in the same condition.
(§2) 2D-electrophoresis was performed using 12% acrylamide gels. First gel electrophoresis was performed at PI 4˜10 N, using a gel size of 8.5×7 cm. After electrophoresis, it was dyed with Colloidal Coomassie Blue, and then compared expression by using PDQuest software to analyze each spot.
(§3) Difference in the expression levels of more than 1.5 times was identified using MALDI-TOF MS (Matrix Desorption/Ionization Time of Flight Mass Spectromestry). Among these, proteins correlated with inflammation-related signaling, such as i-NOS and HMGB-1 were identified (Refer to Table 6). The changes in protein expression levels either increased or decreased by 1.5 times by amyloid-β protein, but it was confirmed that expression level was regulated close to that of negative control when PEP-1 was added (Refer to FIGS. 14A-14B).
(§4) The Table 6 below is an analysis of expression levels of proteins associated with inflammation by 2D electrophoresis technique. The control group represents protein expression level of cells that were not treated with neither amyloid-β protein nor PEP-1.

The subject of a further assay is i-NOS. The description is as above. The format is cell-based, rat. The note with it: 20 ug β-amyloid treated group, versus negative control 1.0. The protocol: as §1, §2, §3, §4
The subject of another assay is Pyk2. Described as above. Format: cell-based, rat. The note with it: 20 ug β-amyloid treated group, versus negative control 1.0. The protocol: as §1, §2, §3, §4
For a further assay, the system named is MAP Kinase. The assay is described as above. Format: cell-based, rat. Particulars: 20 ug β-amyloid treated group, versus negative control 1.0. As for the experimental part:
as §1, §2, §3, §4

The next assay has as its system HSP 70. Described as above. Format: cell-based, rat. The note with it: 20 ug β-amyloid treated group, versus negative control 1.0. As for the experimental part:
as §1, §2, §3, §4

The test system of a further assay is GADD 153. The assay is described as above. Particulars: 20 ug β-amyloid treated group, versus negative control 1.0. The format is cell-based, rat. The protocol: as §1, §2, §3, §4
In a further assay the test system is e-NOS. Described as above. Format: cell-based, rat. The note with it: 20 ug β-amyloid treated group, versus negative control 1.0. As for the experimental part: as §1, §2, §3, §4
Another assay concerns HSP 90. Described as above. Particulars: 20 ug β-amyloid treated group, versus negative control 1.0. The format is cell-based, rat. As for the experimental part:
as §1, §2, §3, §4

Fluorescein Isothiocyanate [FITC] registered a TNF-α level in the assay on TNF-α of 6.2 ng/mL.
In the assay with neural stem cells, amyloid-β protein [reference compound] returned a cell survival of 60%. In addition, the “HMGB1 expression (fold)” value in the assay with HMGB1 is −1.5 fold. The “i-NOS expression (fold)” value in the assay on i-NOS was found to be 1.9 fold. Moreover, the “Pyk2 expression (fold)” value with Pyk2 stood at 2.0 fold. In addition, in the assay on MAP Kinase, the “MAP Kinase expression (fold)” value is listed as 2.2 fold. In addition, the “HSP 70 expression (fold)” value with HSP 70 is listed as −2.3 fold. Moreover, the “GADD 153 expression (fold)” value in the assay on GADD 153 is on record as 1.6 fold. Besides, the “e-NOS expression (fold)” value with e-NOS turned out to be 1.9 fold. Besides, in the assay on HSP 90, the “HSP 90 expression (fold)” value was −1.8 fold.
